{
  "source": "paper PMC5218480",
  "about": "(PLoS ONE, 2017)",
  "system": "MV-4-11 cells",
  "experiment": "Gene expression microarray analysis (Affymetrix PrimeView) and GSEA",
  "format": "cell-based, human",
  "design": "RFU PODN (11730768_x_at) / Fold change /veh PODN (11730768_x_at) / RFU LINC00158 (11744669_a_at) / Fold change /veh LINC00158 (11744669_a_at) / RFU DUSP10 (11751237_a_at) / Fold change /veh DUSP10 (11751237_a_at) / RFU ID3 (11757404_x_at) / Fold change /veh ID3 (11757404_x_at) / RFU PLEKHG5 (11737974_s_at) / Fold change /veh PLEKHG5 (11737974_s_at) / RFU LRRC4B (11730491_at) / Fold change /veh LRRC4B (11730491_at) / RFU GIMAP4 (11747438_a_at) / Fold change /veh GIMAP4 (11747438_a_at) / RFU KRT8 (11758183_x_at) / Fold change /veh KRT8 (11758183_x_at) / RFU CNN1 (11734310_a_at) / Fold change /veh CNN1 (11734310_a_at) / RFU VPS37D (11726825_at) / Fold change /veh VPS37D (11726825_at) / RFU C10orf10 (11716522_x_at) / Fold change /veh C10orf10 (11716522_x_at) / RFU KIR2DL2 /// KIR2DL4 /// KIR2DL5A /// KIR2DL5B /// KIR2DS1 /// KIR2DS2 /// KIR2DS3 /// KIR2DS4 /// KIR3DL3 /// KIR3DL3 /// KIR3DS1 (11738374_at) / Fold change /veh KIR2DL2 /// KIR2DL4 /// KIR2DL5A /// KIR2DL5B /// KIR2DS1 /// KIR2DS2 /// KIR2DS3 /// KIR2DS4 /// KIR3DL3 /// KIR3DL3 /// KIR3DS1 (11738374_at) / RFU C1QL1 (11718748_at) / Fold change /veh C1QL1 (11718748_at) / RFU TMPRSS4 (11747572_a_at) / Fold change /veh TMPRSS4 (11747572_a_at) / RFU HAMP (11756126_x_at) / Fold change /veh HAMP (11756126_x_at) / RFU RNFT2 (11725882_a_at) / Fold change /veh RNFT2 (11725882_a_at) / RFU NR4A2 (11747474_a_at) / Fold change /veh NR4A2 (11747474_a_at) / RFU ABCC12 (11746883_a_at) / Fold change /veh ABCC12 (11746883_a_at) / RFU TMEM136 (11760407_x_at) / Fold change /veh TMEM136 (11760407_x_at) / RFU CLDN22 /// WWC2 (11732394_at) / Fold change /veh CLDN22 /// WWC2 (11732394_at) / RFU HLA-DPB1 (11760878_x_at) / Fold change /veh HLA-DPB1 (11760878_x_at) / RFU SPINT1 (11716480_a_at) / Fold change /veh SPINT1 (11716480_a_at) / RFU GAP43 (11754022_s_at) / Fold change /veh GAP43 (11754022_s_at) / RFU A4GNT (11735810_at) / Fold change /veh A4GNT (11735810_at) / RFU PRB3 (11715151_x_at) / Fold change /veh PRB3 (11715151_x_at) / RFU TUBB4B (11761932_at) / Fold change /veh TUBB4B (11761932_at) / RFU CAPN14 (11732068_a_at) / Fold change /veh CAPN14 (11732068_a_at) / RFU TMCC2 (11721928_a_at) / Fold change /veh TMCC2 (11721928_a_at) / RFU IRGQ (11745062_a_at) / Fold change /veh IRGQ (11745062_a_at) / RFU FAM174B (11720279_a_at) / Fold change /veh FAM174B (11720279_a_at) / RFU TMPRSS4 (11748680_a_at) / Fold change /veh TMPRSS4 (11748680_a_at) / RFU FAM212B (11763350_a_at) / Fold change /veh FAM212B (11763350_a_at) / RFU PLEKHG5 (11743358_a_at) / Fold change /veh PLEKHG5 (11743358_a_at) / RFU ZSCAN30 (11745921_a_at) / Fold change /veh ZSCAN30 (11745921_a_at) / RFU CMKLR1 (11741424_a_at) / Fold change /veh CMKLR1 (11741424_a_at) / RFU LOC101060620 /// MAPK8IP1 (11723275_at) / Fold change /veh LOC101060620 /// MAPK8IP1 (11723275_at) / RFU SPTSSB (11747773_x_at) / Fold change /veh SPTSSB (11747773_x_at) / RFU PRSS12 (11739890_at) / Fold change /veh PRSS12 (11739890_at) / RFU BIN1 (11741810_x_at) / Fold change /veh BIN1 (11741810_x_at) / RFU WNT11 (11732464_a_at) / Fold change /veh WNT11 (11732464_a_at) / RFU C10orf10 (11716521_a_at) / Fold change /veh C10orf10 (11716521_a_at) / RFU C5orf56 (11738089_at) / Fold change /veh C5orf56 (11738089_at) / RFU CYB561 (11721691_x_at) / Fold change /veh CYB561 (11721691_x_at) / RFU ANKRD19P (11752326_a_at) / Fold change /veh ANKRD19P (11752326_a_at) / RFU OR2T12 /// OR2T33 /// OR2T8 (11738714_s_at) / Fold change /veh OR2T12 /// OR2T33 /// OR2T8 (11738714_s_at) / RFU VCAN (11748164_a_at) / Fold change /veh VCAN (11748164_a_at) / RFU JSRP1 (11732532_at) / Fold change /veh JSRP1 (11732532_at) / RFU KRTAP10-11 (11738290_x_at) / Fold change /veh KRTAP10-11 (11738290_x_at) / RFU MYO3A (11730013_a_at) / Fold change /veh MYO3A (11730013_a_at) / RFU EBF3 (11725865_a_at) / Fold change /veh EBF3 (11725865_a_at) / RFU CAMK2N1 (11719241_x_at) / Fold change /veh CAMK2N1 (11719241_x_at) / RFU C5orf56 (11738088_a_at) / Fold change /veh C5orf56 (11738088_a_at) / RFU OLFML3 (11715873_a_at) / Fold change /veh OLFML3 (11715873_a_at) / RFU LOC100653217 /// NTM (11731650_a_at) / Fold change /veh LOC100653217 /// NTM (11731650_a_at) / RFU MAPK11 (11762145_a_at) / Fold change /veh MAPK11 (11762145_a_at) / RFU FIZ1 (11724087_x_at) / Fold change /veh FIZ1 (11724087_x_at) / RFU OASL (11726364_x_at) / Fold change /veh OASL (11726364_x_at) / RFU SOX15 (11748057_x_at) / Fold change /veh SOX15 (11748057_x_at) / RFU CD79A (11719716_a_at) / Fold change /veh CD79A (11719716_a_at) / RFU HIST1H1D (11736915_at) / Fold change /veh HIST1H1D (11736915_at) / RFU CASKIN2 (11723855_a_at) / Fold change /veh CASKIN2 (11723855_a_at) / RFU LOC730098 (11760151_x_at) / Fold change /veh LOC730098 (11760151_x_at) / RFU OR4N2 (11742367_at) / Fold change /veh OR4N2 (11742367_at) / RFU PRRT2 (11749266_a_at) / Fold change /veh PRRT2 (11749266_a_at) / RFU SNX32 (11753110_a_at) / Fold change /veh SNX32 (11753110_a_at) / RFU CDHR5 (11726645_a_at) / Fold change /veh CDHR5 (11726645_a_at) / RFU RCAN1 (11760418_a_at) / Fold change /veh RCAN1 (11760418_a_at) / RFU FAM167A (11723789_a_at) / Fold change /veh FAM167A (11723789_a_at) / RFU FAM26E (11764081_at) / Fold change /veh FAM26E (11764081_at) / RFU ISYNA1 (11749810_s_at) / Fold change /veh ISYNA1 (11749810_s_at) / RFU ACY1 (11761880_at) / Fold change /veh ACY1 (11761880_at) / RFU 11764098_at / Fold change /veh 11764098_at / RFU SAMD14 (11745864_x_at) / Fold change /veh SAMD14 (11745864_x_at) / RFU NPB (11741838_a_at) / Fold change /veh NPB (11741838_a_at) / RFU TMPRSS6 (11731388_a_at) / Fold change /veh TMPRSS6 (11731388_a_at) / RFU KRTAP10-2 (11738614_at) / Fold change /veh KRTAP10-2 (11738614_at) / RFU ARHGAP8 /// PRR5-ARHGAP8 (11727945_x_at) / Fold change /veh ARHGAP8 /// PRR5-ARHGAP8 (11727945_x_at) / RFU KRTAP5-7 /// NADSYN1 (11734609_at) / Fold change /veh KRTAP5-7 /// NADSYN1 (11734609_at) / RFU RASL12 (11751679_a_at) / Fold change /veh RASL12 (11751679_a_at) / RFU CDKN2B (11736163_a_at) / Fold change /veh CDKN2B (11736163_a_at) / RFU PRF1 (11729649_at) / Fold change /veh PRF1 (11729649_at) / RFU, ZNF638 /// ZNF638-IT1 / Fold change vs veh, ZNF638 /// ZNF638-IT1 / RFU, PANK3 / Fold change vs veh, PANK3 / RFU, SH3YL1 / Fold change vs veh, SH3YL1 / RFU, ZEB2 / Fold change vs veh, ZEB2 / RFU, NRIP1 / Fold change vs veh, NRIP1 / RFU, PTTG1IP / Fold change vs veh, PTTG1IP / RFU, CAPN2 / Fold change vs veh, CAPN2 / RFU, MED14 / Fold change vs veh, MED14 / RFU, SNORA58 / Fold change vs veh, SNORA58 / RFU, C1orf63 / Fold change vs veh, C1orf63 / RFU, LRRFIP1 / Fold change vs veh, LRRFIP1 / RFU, NDUFAF7 / Fold change vs veh, NDUFAF7 / RFU, SLC12A2 / Fold change vs veh, SLC12A2 / RFU, IBTK / Fold change vs veh, IBTK / RFU, ESF1 / Fold change vs veh, ESF1 / Fold change vs veh, TMEM50B / RFU, TAOK1 / Fold change vs veh, TAOK1 / RFU, ACBD3 / Fold change vs veh, ACBD3 / RFU, TMA16 / Fold change vs veh, TMA16 / RFU, RWDD3 / Fold change vs veh, RWDD3 / RFU, BCAT1 / Fold change vs veh, BCAT1 / RFU, EDEM3 / Fold change vs veh, EDEM3 / RFU, TMEM33 / Fold change vs veh, TMEM33 / RFU, WDR75 / Fold change vs veh, WDR75 / RFU, AHCTF1 / Fold change vs veh, AHCTF1 / RFU, TFRC / Fold change vs veh, TFRC / RFU, ZDHHC17 / Fold change vs veh, ZDHHC17 / RFU, NOM1 / Fold change vs veh, NOM1 / RFU, ARL8B / Fold change vs veh, ARL8B / RFU, ZBTB11 / Fold change vs veh, ZBTB11 / RFU, TAMM41 / Fold change vs veh, TAMM41 / RFU, KIAA1704 /// LOC100996395 / Fold change vs veh, KIAA1704 /// LOC100996395 / RFU, ING1 / Fold change vs veh, ING1 / RFU, TRMT61B / Fold change vs veh, TRMT61B / RFU, FUBP3 / Fold change vs veh, FUBP3 / RFU, TP53 / Fold change vs veh, TP53 / RFU, TNKS2 / Fold change vs veh, TNKS2 / RFU, ZFP14 / Fold change vs veh, ZFP14 / RFU, ACTR2 / Fold change vs veh, ACTR2 / RFU, PPP3R1 / Fold change vs veh, PPP3R1 / RFU, PIK3R1 / Fold change vs veh, PIK3R1 / RFU, HNRNPA1 / Fold change vs veh, HNRNPA1 / RFU, RNF170 / Fold change vs veh, RNF170 / RFU, ZNF28 / Fold change vs veh, ZNF28 / RFU, RNGTT / Fold change vs veh, RNGTT / RFU, OGT / Fold change vs veh, OGT / RFU, BRD1 / Fold change vs veh, BRD1 / RFU, MARS / Fold change vs veh, MARS / RFU, ZNF655 / Fold change vs veh, ZNF655 / RFU, FAHD1 / Fold change vs veh, FAHD1 / RFU, BDP1 / Fold change vs veh, BDP1 / RFU, LRRCC1 / Fold change vs veh, LRRCC1 / RFU, ARID1A / Fold change vs veh, ARID1A / RFU, ZNF146 / Fold change vs veh, ZNF146 / RFU, ZNF330 / Fold change vs veh, ZNF330 / RFU, GPN3 / Fold change vs veh, GPN3 / RFU, C9orf123 / Fold change vs veh, C9orf123 / RFU, N4BP2L2 / Fold change vs veh, N4BP2L2 / RFU, ARFIP1 / Fold change vs veh, ARFIP1 / RFU, FAM179B / Fold change vs veh, FAM179B / RFU, BCL10 / Fold change vs veh, BCL10 / RFU, UHRF1BP1L / Fold change vs veh, UHRF1BP1L / RFU, BET1 / Fold change vs veh, BET1 / RFU, CNOT2 / Fold change vs veh, CNOT2 / RFU, ZNF268 / Fold change vs veh, ZNF268 / Fold change vs veh, ZNF507 / RFU, DGCR2 / Fold change vs veh, DGCR2 / RFU, WDSUB1 / Fold change vs veh, WDSUB1 / Fold change vs veh, HSP90B1 /// MIR3652 / RFU, ADSS / Fold change vs veh, ADSS / RFU, GK / Fold change vs veh, GK / RFU, ZNF148 / Fold change vs veh, ZNF148 / RFU, TAF9 / Fold change vs veh, TAF9 / RFU, SLC1A5 / Fold change vs veh, SLC1A5 / RFU, SLMO2 / Fold change vs veh, SLMO2 / RFU, ABCC4 / Fold change vs veh, ABCC4 / RFU, LOC101060439 /// RAP1B / Fold change vs veh, LOC101060439 /// RAP1B / RFU, RFX7 / Fold change vs veh, RFX7 / RFU, GTPBP10 / Fold change vs veh, GTPBP10 / RFU, CNEP1R1 / Fold change vs veh, CNEP1R1 / RFU, BIVM-ERCC5 /// ERCC5 / Fold change vs veh, BIVM-ERCC5 /// ERCC5 / RFU, ILF3 / Fold change vs veh, ILF3 / RFU 11762660_at / Fold change /veh 11762660_at / RFU VCAN (11757783_s_at) / Fold change /veh VCAN (11757783_s_at) / RFU DDX43 (11728927_at) / Fold change /veh DDX43 (11728927_at) / RFU KRT8 (11758188_x_at) / Fold change /veh KRT8 (11758188_x_at) / RFU NKD1 (11759106_at) / Fold change /veh NKD1 (11759106_at) / RFU SRD5A1 (11742802_a_at) / Fold change /veh SRD5A1 (11742802_a_at) / RFU TPSAB1 /// TPSB2 (11721975_s_at) / Fold change /veh TPSAB1 /// TPSB2 (11721975_s_at) / RFU GSTM3 (11746129_a_at) / Fold change /veh GSTM3 (11746129_a_at) / RFU IL23R (11737362_x_at) / Fold change /veh IL23R (11737362_x_at) / RFU TMEM51 (11727254_a_at) / Fold change /veh TMEM51 (11727254_a_at) / RFU PIWIL2 (11732686_x_at) / Fold change /veh PIWIL2 (11732686_x_at) / RFU ORM1 (11744905_x_at) / Fold change /veh ORM1 (11744905_x_at) / RFU CCDC152 (11743942_at) / Fold change /veh CCDC152 (11743942_at) / RFU ECM1 (11717891_a_at) / Fold change /veh ECM1 (11717891_a_at) / RFU IL23R (11748794_a_at) / Fold change /veh IL23R (11748794_a_at) / RFU TNFAIP8L3 (11732012_x_at) / Fold change /veh TNFAIP8L3 (11732012_x_at) / RFU MBOAT4 (11741988_at) / Fold change /veh MBOAT4 (11741988_at) / RFU 11764193_at / Fold change /veh 11764193_at / RFU TMEM53 (11763286_at) / Fold change /veh TMEM53 (11763286_at) / RFU MAGEB2 (11727129_at) / Fold change /veh MAGEB2 (11727129_at) / RFU TMEM200A (11744735_a_at) / Fold change /veh TMEM200A (11744735_a_at) / RFU CCDC152 (11751479_a_at) / Fold change /veh CCDC152 (11751479_a_at) / RFU FAM211A (11726209_a_at) / Fold change /veh FAM211A (11726209_a_at) / RFU RGS16 (11746705_a_at) / Fold change /veh RGS16 (11746705_a_at) / RFU VCAN (11755009_s_at) / Fold change /veh VCAN (11755009_s_at) / RFU RHOB (11743442_s_at) / Fold change /veh RHOB (11743442_s_at) / RFU RGS16 (11720943_a_at) / Fold change /veh RGS16 (11720943_a_at) / RFU RGS16 (11720944_at) / Fold change /veh RGS16 (11720944_at) / RFU, VPS4B / Fold change vs veh, VPS4B / RFU, CREB1 / Fold change vs veh, CREB1 / RFU, DNAJC13 / Fold change vs veh, DNAJC13 / RFU, GNAQ / Fold change vs veh, GNAQ / RFU, CDK5R1 / Fold change vs veh, CDK5R1 / RFU, ZRANB3 / Fold change vs veh, ZRANB3 / RFU, CUL4A / Fold change vs veh, CUL4A / RFU, CCNY / Fold change vs veh, CCNY / RFU, UFL1 / Fold change vs veh, UFL1 / RFU, COG3 / Fold change vs veh, COG3 / RFU, DIAPH2 / Fold change vs veh, DIAPH2 / RFU, SKA2 / Fold change vs veh, SKA2 / RFU, AFF3 / Fold change vs veh, AFF3 / RFU, LMF1 / Fold change vs veh, LMF1 / RFU, IPO11 / Fold change vs veh, IPO11 / RFU, DFFB / Fold change vs veh, DFFB / RFU, FOXP1 / Fold change vs veh, FOXP1 / RFU, CARD8 / Fold change vs veh, CARD8 / RFU, STRN3 / Fold change vs veh, STRN3 / RFU, ADK / Fold change vs veh, ADK / RFU, RASSF2 / Fold change vs veh, RASSF2 / RFU, WIPF1 / Fold change vs veh, WIPF1 / RFU, LARP1B / Fold change vs veh, LARP1B / RFU, RASA1 / Fold change vs veh, RASA1 / RFU, RB1 / Fold change vs veh, RB1 / RFU, PPFIA1 / Fold change vs veh, PPFIA1 / RFU, MAT2A / Fold change vs veh, MAT2A / RFU, CCT5 / Fold change vs veh, CCT5 / RFU, WDR92 / Fold change vs veh, WDR92 / RFU, CUX1 / Fold change vs veh, CUX1 / RFU, TTC7A / Fold change vs veh, TTC7A / RFU, TMEM135 / Fold change vs veh, TMEM135 / RFU, DEPTOR / Fold change vs veh, DEPTOR / RFU, CPM / Fold change vs veh, CPM / RFU, DNAJB6 / Fold change vs veh, DNAJB6 / RFU, CACNA2D3 / Fold change vs veh, CACNA2D3 / RFU, DTX4 / Fold change vs veh, DTX4 / RFU, TFCP2 / Fold change vs veh, TFCP2 / RFU, GMCL1 /// GMCL1P1 / Fold change vs veh, GMCL1 /// GMCL1P1 / RFU, AEBP2 / Fold change vs veh, AEBP2 / RFU, SNHG1 /// SNORD22 /// SNORD25 /// SNORD26 /// SNORD27 /// SNORD28 /// SNORD29 /// SNORD31 / Fold change vs veh, SNHG1 /// SNORD22 /// SNORD25 /// SNORD26 /// SNORD27 /// SNORD28 /// SNORD29 /// SNORD31 / Fold change (Aza/veh), C12orf56 (ProbeSet 11735607_a_at) / Fold change (ACY-1035/veh), C12orf56 (ProbeSet 11735607_a_at) / Fold change (Aza/veh), FGFR1OP (ProbeSet 11751329_s_at) / Fold change (ACY-1035/veh), FGFR1OP (ProbeSet 11751329_s_at) / Fold change (Aza/veh), VPS36 (ProbeSet 11739960_a_at) / Fold change (ACY-1035/veh), VPS36 (ProbeSet 11739960_a_at) / RFU SYPL1 (11715823_x_at) / Fold change /veh SYPL1 (11715823_x_at) / RFU IGFBP7 (11715501_s_at) / Fold change /veh IGFBP7 (11715501_s_at) / RFU REEP3 (11722064_at) / Fold change /veh REEP3 (11722064_at) / RFU IGLL1 (11728026_x_at) / Fold change /veh IGLL1 (11728026_x_at): dose or concentration left out as unconfirmed",
  "conditions": "ProbeSet 11753234_a_at; LIST B",
  "data": [
    {"compound": "Nc1ccc(-c2cccs2)cc1NC(=O)c1ccc2c(c1)cc(C1CC1)n2CCN1CCOCC1", "note": "[ACY-1035]", "values": [
      {"measurement": "RFU, TAMM41", "value": 55.35, "unit": "RFU"}
    ]}
  ]
}
